# In patent publication EP0432677B1, “N-(pyrrolo[2,3-d]pyrimidin-3-ylacyl)-glutamic acid derivatives” (THE TRUSTEES OF PRINCETON UNIVERSITY, priority 1989, dated 1991):
# Entries after “also recorded” stand apart in the source; their conditions may differ.
# Legend:
# CCRF-CEM [1] = assay: Representative inhibition values against CCRF-CEM cell cultures; type: cell-based; conditions: Homo sapiens
# CCRF-CEM [2] = assay: Reversal of cytotoxicity by added metabolites (hypoxanthine, AICA, thymidine, leucovorin); type: cell-based, human
# tumor cells = assay: In vivo antitumor activity in mice inoculated with tumor cells, eight daily i.p. doses; set-up: species or system strain DBA/2; conditions: for % Inhibition / Tumor Weight: eight daily doses; for Tumor Weight: mean ± standard deviation; for inhibitory effect on tumor growth in vivo: overall assessment in words
# Description: Female mice, strain DBA/2, were inoculated with tumor cells. Treatment with the test compounds began the day following inoculation. The treatment consisted of eight daily doses i.p. (intraperitoneal) of either Compounds A and C for eight consecutive days. Tumor size was measured on the day following the last day of treatment to determine the inhibitory effect of the test compounds on tumor growth.
# [3] = test system: Cem human lymphoblastic leukemia cells; assay: Reversal studies to identify the point of enzymatic inhibition (Example 11); type: cell-based; conditions: from reversal with 100 µM hypoxanthine and/or 5 µM thymidine
# Description: The mechanism of action of each compound was determined through further tests employing so-called "reversal" studies. These studies supplied compounds or precursors which, alone or together, identified the specific point of enzymatic inhibition. • (a) Hypoxanthine - Hypoxanthine will reverse the inhibitory effects of a compound if the compound functions as an inhibitor of purine de novo synthesis. The availability of hypoxanthine thus allows cells to bypass purine de novo synthesis. • (b) Thymidine - Thymidine alone will reverse the inhibitory effects of a compound if the compound functions as a specific inhibitor of thymidylate synthetase. • (c) Hypoxanthine and Thymidine - If a compound is determined in (a) to not be an inhibitor of purine de novo synthesis, and in (b) to not be an inhibitor of thymidilate synthetase, then a reversal study utilizing hypoxanthine and thymidine, in combination, will determine whether the compound can produce inhibition of both pathways. Thus if this combination reverses the inhibitory effects of a compound, the compound most likely functions as an inhibitor of dihydrofolate reductase (involved in both purine and pyrimidine biosynthesis).
# In each case, the basic procedure outlined above was followed, modified in that 250 µl of the reversal compound [or of each reversal compound in […]] was added to the test wells, and the amount of serumless media added to each test well was decreased [or entirely eliminated in (b)] by the same amount. The reversal compounds were prepared as 8X stock solutions in phosphate buffered saline (sterile filtered through a 0.2 µ acrodisc filter - Gelman) so that 250 µl of the stock solution would yield a final concentration of 100 µM hypoxanthine and/or 5 µM thymidine.
# [4] = test system: Cem human lymphoblastic leukemia cells; assay: Inhibition of growth of Cem human lymphoblastic leukemia cells, 72 hours incubation, Coulter Counter particle count (Example 11); type: cell-based; conditions: for activity at 0.045 µg/mL: concentration 0.045 µg/ml; for activity at 0.137 µg/mL: concentration 0.137 µg/ml; for activity at 0.411 µg/mL: concentration 0.411 µg/ml; for activity at 1.23 µg/mL: concentration 1.23 µg/ml; for activity at 3.7 µg/mL: concentration 3.7 µg/ml; for activity at 11.1 µg/mL: concentration 11.1 µg/ml; for activity at 33.3 µg/mL: concentration 33.3 µg/ml; for activity at 100 µg/mL: concentration 100.0 µg/ml; for IC50: concentration inhibiting 50% of cellular growth, read-out: relative overall in vitro inhibitory concentration (IC50); for activity at 0.015 µg/mL: concentration 0.015 µg/ml
# Description: Each of the compounds was dissolved in 100% dimethylsulfoxide. Dilutions of each compound were prepared to yield a range of test concentrations as hereinafter indicated.
# Cem human lymphoblastic leukemia cells are grown in RPMI 1640 media (MABio), supplemented with 10% dialyzed fetal bovine serum (Gibco) at 37°C in humidified atmospheric conditions of 95% air and 5% CO₂. The cells are grown in static suspension (T-flask, Corning) maintained in log phase at a concentration of 3-7 x 10⁵ cells/ml.
# (i) 10 µl of a test compound is placed in a well (Costar 24 well clusters). This step is repeated for each test concentration of the compounds. (ii) 500 µl of serum-free media is added to each well. (iii) A sterile bottle containing RPMI 1640 media supplemented with 10% dialyzed fetal bovine serum, 16 mM hepes and 8 mM mops buffers and 3 x 10⁴ cells/ml is placed on a magnetic stirrer. A Wheaton peristaltic pump is used to deliver 1.5 ml of this cell suspension to each well. The resulting final volume delivered to each well is 2.0 ml at a cellular concentration of […]. (iv) The cluster wells are incubated at 37°C in a humidified incubator (95% air, 5% CO₂) for 72 hours. (v) After the incubation period, measurements of each well are taken using the ZB1 Coulter Counter particle counter and the IC₅₀ (concentration inhibiting 50% of cellular growth) is determined. (vi) The results of this test are as follows: Table I
# [5] = Homo sapiens, CCRF-CEM, 72 hours, read-out: Cellular Growth (%)
# [6] = Homo sapiens, CCRF-CEM, 72 hours
# [7] = Table VI Run 1, dose 12.50 mg/kg i.p.
# [8] = Table VI Run 1, dose 25.00 mg/kg i.p.
# [9] = Table VI Run 1, dose 50.00 mg/kg i.p.
# [10] = Table VI Run 1, dose 100.00 mg/kg i.p.
# [11] = Table VI Run 1, dose 200.00 mg/kg i.p.
# [12] = Table VI Run 2, dose 0.6256 mg/kg i.p.
# [13] = Table VI Run 2, dose 1.25 mg/kg i.p.
# [14] = Table VI Run 2, dose 5 mg/kg i.p.
# [15] = Table VI Run 2, dose 10 mg/kg i.p.
# [16] = Table VI Run 2, dose 20 mg/kg i.p.
# [17] = Table VI Run 2, dose 40 mg/kg i.p.
smiles,measurement,setting,value
Nc1nc(O)c2c(CCc3cccc(F)c3)c[nH]c2n1,IC50,CCRF-CEM [1],> 20 µg/mL
Nc1nc(O)c2c(CCc3ccc(C(=O)O)cc3)c[nH]c2n1,IC50,CCRF-CEM [1],> 20 µg/mL
Nc1nc(O)c2c(CCc3ccc(C(=O)N[C@@H](CCC(=O)O)C(=O)O)c(F)c3)c[nH]c2n1,IC50,CCRF-CEM [1],0.008 µg/mL
Nc1nc(O)c2c(CCc3ccc(C(=O)N[C@@H](CCC(=O)O)C(=O)O)cc3F)c[nH]c2n1,IC50,CCRF-CEM [1],0.019 µg/mL
Nc1nc2[nH]cc(CCc3ccc(C(=O)N[C@@H](CCC(=O)O)C(=O)O)cc3)c2c(=O)[nH]1,Cytotoxicity reversed by addition of aminoimidazolecarboxamide (AICA),CCRF-CEM [2]; addition of aminoimidazolecarboxamide (AICA),not reversed
same,Cytotoxicity reversed by addition of hypoxanthine,CCRF-CEM [2]; addition of hypoxanthine,not reversed
same,Cytotoxicity reversed by addition of thymidine,CCRF-CEM [2]; addition of thymidine,reversed
same,IC50,CCRF-CEM [1],0.004 µg/mL
"COc1ccc(CCc2c[nH]c3nc(N)nc(O)c23)cc1 [3-[2-(4-methoxyphenyl)ethyl]-4-hydroxy-6-aminopyrrolo[2,3-d]pyrimidine]",IC50,CCRF-CEM [1],> 20 µg/mL
"Nc1nc(O)c2c(n1)NCC2CCc1ccc(C(=O)NC(CCC(=O)O)C(=O)O)cc1 (stereo not drawn) [Compound A, reference compound]",% Inhibition,"tumor cells; Table V, dose 3.125 mg/kg i.p.",0%
same,Tumor Weight,"tumor cells; Table V, dose 3.125 mg/kg i.p.",2825 ± 822 mg
same,% Inhibition,"tumor cells; Table V, dose 6.25 mg/kg i.p.",0%
same,Tumor Weight,"tumor cells; Table V, dose 6.25 mg/kg i.p.",2719 ± 413 mg
same,% Inhibition,"tumor cells; Table V, dose 12.5 mg/kg i.p.",0%
same,Tumor Weight,"tumor cells; Table V, dose 12.5 mg/kg i.p.",3360 ± 703 mg
same,% Inhibition,"tumor cells; Table V, dose 25 mg/kg i.p.",12%
same,Tumor Weight,"tumor cells; Table V, dose 25 mg/kg i.p.",2121 ± 410 mg
same,% Inhibition,"tumor cells; Table V, dose 50 mg/kg i.p.",19%
same,Tumor Weight,"tumor cells; Table V, dose 50 mg/kg i.p.",1935 ± 498 mg
same,% Inhibition,"tumor cells; Table V, dose 100 mg/kg i.p.",0%
same,Tumor Weight,"tumor cells; Table V, dose 100 mg/kg i.p.",3447 ± 747 mg
same,% Inhibition,"tumor cells; Table V, dose 200 mg/kg i.p.",0%
same,Tumor Weight,"tumor cells; Table V, dose 200 mg/kg i.p.",2525 ± 694 mg
same,inhibitory effect on tumor growth in vivo,tumor cells,essentially no inhibitory effect; also recorded: inactive
same,mechanism of action (point of enzymatic inhibition),[3],appear to inhibit TS
same,activity at 0.045 µg/mL,[4]; [5],100%
same,activity at 0.137 µg/mL,[4]; [5],63.9%
same,activity at 0.411 µg/mL,[4]; [5],21.5%
same,activity at 1.23 µg/mL,[4]; [5],16.1%
same,activity at 3.7 µg/mL,[4]; [5],15.3%
same,activity at 11.1 µg/mL,[4]; [5],16.2%
same,activity at 33.3 µg/mL,[4]; [5],15.5%
same,activity at 100 µg/mL,[4]; [5],13.1%
same,IC50,[4]; [6],0.2 µg/mL
Nc1nc(O)c2c(CCCc3ccc(C(=O)NC(CCC(=O)O)C(=O)O)cc3)c[nH]c2n1 (stereo not drawn) [Compound B],mechanism of action (point of enzymatic inhibition),[3],inhibition of DHFR rather than TS
same,activity at 0.015 µg/mL,[4]; [5],76.9%
same,activity at 0.045 µg/mL,[4]; [5],33.5%
same,activity at 0.137 µg/mL,[4]; [5],17.7%
same,activity at 0.411 µg/mL,[4]; [5],13%
same,activity at 1.23 µg/mL,[4]; [5],11.3%
same,activity at 3.7 µg/mL,[4]; [5],10.4%
same,activity at 11.1 µg/mL,[4]; [5],9.6%
same,activity at 33.3 µg/mL,[4]; [5],10.8%
same,IC50,[4]; [6],0.03 µg/mL
Nc1nc(O)c2c(CCc3ccc(C(=O)NC(CCC(=O)O)C(=O)O)cc3)c[nH]c2n1 (stereo not drawn) [Compound C],% Inhibition,tumor cells; [7],98%
same,Tumor Weight,tumor cells; [7],102 ± 166 mg
same,% Inhibition,tumor cells; [8],100%
same,Tumor Weight,tumor cells; [8],0 ± 0 mg
same,% Inhibition,tumor cells; [9],100%
same,Tumor Weight,tumor cells; [9],0 ± 0 mg
same,% Inhibition,tumor cells; [10],100%
same,Tumor Weight,tumor cells; [10],0 ± 0 mg
same,% Inhibition,tumor cells; [11],100%
same,Tumor Weight,tumor cells; [11],0 ± 0 mg
same,% Inhibition,tumor cells; [12],0%
same,Tumor Weight,tumor cells; [12],7381 ± 2397 mg
same,% Inhibition,tumor cells; [13],0%
same,Tumor Weight,tumor cells; [13],6682 ± 2300 mg
same,Tumor Weight,"tumor cells; Table VI Run 2, dose 2.5 mg/kg i.p.",2908 ± 1948 mg
same,% Inhibition,tumor cells; [14],83%
same,Tumor Weight,tumor cells; [14],1034 ± 657 mg
same,% Inhibition,tumor cells; [15],97%
same,Tumor Weight,tumor cells; [15],196 ± 152 mg
same,% Inhibition,tumor cells; [16],100%
same,Tumor Weight,tumor cells; [16],18 ± 57 mg
same,% Inhibition,tumor cells; [17],100%
same,Tumor Weight,tumor cells; [17],0 ± 0 mg
same,inhibitory effect on tumor growth in vivo,tumor cells,marked in vivo inhibitory effect; also recorded: highly active
same,mechanism of action (point of enzymatic inhibition),[3],appear to inhibit TS
same,activity at 0.005 µg/mL,"[4]; Homo sapiens, CCRF-CEM, concentration 0.005 µg/ml, 72 hours, read-out: Cellular Growth (%)",96%
same,activity at 0.015 µg/mL,[4]; [5],25%
same,activity at 0.045 µg/mL,[4]; [5],14%
same,activity at 0.137 µg/mL,[4]; [5],14%
same,activity at 0.411 µg/mL,[4]; [5],13%
same,activity at 1.23 µg/mL,[4]; [5],14%
same,activity at 3.7 µg/mL,[4]; [5],13%
same,activity at 11.1 µg/mL,[4]; [5],12%
same,activity at 33.3 µg/mL,[4]; [5],12%
same,activity at 100 µg/mL,[4]; [5],14%
same,IC50,[4]; [6],0.007 µg/mL
same,more active in vitro than Compound A by a factor,"[4]; in vitro, relative to Compound A",at least 25 fold
"Cc1nc(O)c2c(CCc3ccc(C(=O)N[C@@H](CCC(=O)O)C(=O)O)cc3)c[nH]c2n1 [N-{4-[2-(4-hydroxy-6-methylpyrrolo[2,3-d]pyrimidin-3-yl)ethyl]-benzoyl}-L-glutamic acid]",IC50,CCRF-CEM [1],0.0084 µg/mL
"O=C(O)CC[C@H](NC(=O)c1ccc(CCc2c[nH]c3ncnc(O)c23)cc1)C(=O)O [N-{4-[2-(4-hydroxypyrrolo[2,3-d]pyrimidin-3-yl)ethyl]benzoyl}-L-glutamic acid]",IC50,CCRF-CEM [1],1.2 µg/mL
"Nc1nc(O)c2c(CCc3ccc(C(=O)N[C@@H](CCC(=O)O)C(=O)O)s3)c[nH]c2n1 [N-{5-[2-(4-hydroxy-6-aminopyrrolo[2,3-d]-pyrimidin-3-yl)ethyl]thien-2-ylcarbonyl}-L-glutamic acid]",IC50,CCRF-CEM [1],0.025 µg/mL
